Experimental data reported in the NIST ThermoML archive (doi:10.1021/je050031f).

Tests used:
[1] = refractive index (Na D-line) (dimensionless); xn = mol fraction of the nth substance listed; details: 100.8 kPa, Liquid, Standard Abbe refractometry
[2] = xn = mol fraction of the nth substance listed; details: 100.8 kPa, Liquid

CC(C)OC(C)C [diisopropyl ether] + CCO
Details | mass density, 288.15 K [kg/m3] | mass density, 298.15 K [kg/m3] | mass density, 308.15 K [kg/m3] | refractive index, 288.15 K | refractive index, 298.15 K | refractive index, 308.15 K | viscosity, 288.15 K [mPa·s] | viscosity, 298.15 K [mPa·s] | viscosity, 308.15 K [mPa·s]
[1], x1 = 0.05 | – | – | – | 1.3657 | 1.36097 | 1.35649 | – | – | –
[1], x1 = 0.1 | – | – | – | 1.36697 | 1.36212 | 1.35757 | – | – | –
[1], x1 = 0.15 | – | – | – | 1.368 | 1.36316 | 1.35852 | – | – | –
[1], x1 = 0.2 | – | – | – | 1.36883 | 1.36395 | 1.35926 | – | – | –
[1], x1 = 0.25 | – | – | – | 1.36952 | 1.36457 | 1.3598 | – | – | –
[1], x1 = 0.3 | – | – | – | 1.37013 | 1.36509 | 1.36021 | – | – | –
[1], x1 = 0.35 | – | – | – | 1.37062 | 1.3655 | 1.36057 | – | – | –
[1], x1 = 0.4 | – | – | – | 1.37102 | 1.36587 | 1.36083 | – | – | –
[1], x1 = 0.45 | – | – | – | 1.37134 | 1.36612 | 1.36102 | – | – | –
[1], x1 = 0.5 | – | – | – | 1.37158 | 1.36632 | 1.36113 | – | – | –
[1], x1 = 0.55 | – | – | – | 1.37175 | 1.36644 | 1.36119 | – | – | –
[1], x1 = 0.6 | – | – | – | 1.3719 | 1.36651 | 1.36118 | – | – | –
[1], x1 = 0.65 | – | – | – | 1.37197 | 1.36652 | 1.36116 | – | – | –
[1], x1 = 0.7 | – | – | – | 1.37196 | 1.36651 | 1.36112 | – | – | –
[1], x1 = 0.75 | – | – | – | 1.37192 | 1.36645 | 1.36103 | – | – | –
[1], x1 = 0.8 | – | – | – | 1.37188 | 1.36635 | 1.36089 | – | – | –
[1], x1 = 0.85 | – | – | – | 1.37178 | 1.36621 | 1.36071 | – | – | –
[1], x1 = 0.9 | – | – | – | 1.37162 | 1.36597 | 1.36042 | – | – | –
[1], x1 = 0.95 | – | – | – | 1.37141 | 1.36566 | 1.36 | – | – | –
[1], x1 = 1 | – | – | – | 1.37126 | 1.36537 | 1.35954 | – | – | –
[2], x1 = 0.05 | 788.3 | 779.8 | 771 | – | – | – | 1.176 | 0.976 | 0.815
[2], x1 = 0.1 | 783.4 | 774.8 | 765.8 | – | – | – | 1.047 | 0.876 | 0.737
[2], x1 = 0.15 | 778.8 | 770 | 760.9 | – | – | – | 0.946 | 0.793 | 0.671
[2], x1 = 0.2 | 774.7 | 765.7 | 756.4 | – | – | – | 0.851 | 0.718 | 0.613
[2], x1 = 0.25 | 770.7 | 761.4 | 752 | – | – | – | 0.772 | 0.655 | 0.562
[2], x1 = 0.3 | 766.9 | 757.5 | 747.9 | – | – | – | 0.705 | 0.605 | 0.52
[2], x1 = 0.35 | 763.3 | 753.9 | 744.2 | – | – | – | 0.649 | 0.559 | 0.484
[2], x1 = 0.4 | 760 | 750.4 | 740.7 | – | – | – | 0.6 | 0.519 | 0.452
[2], x1 = 0.45 | 756.9 | 747.1 | 737.3 | – | – | – | 0.559 | 0.487 | 0.427
[2], x1 = 0.5 | 753.8 | 744.1 | 734.1 | – | – | – | 0.523 | 0.457 | 0.403
[2], x1 = 0.55 | 751 | 741.2 | 731.1 | – | – | – | 0.494 | 0.432 | 0.382
[2], x1 = 0.6 | 748.3 | 738.4 | 728.3 | – | – | – | 0.467 | 0.413 | 0.364
[2], x1 = 0.65 | 745.7 | 735.8 | 725.6 | – | – | – | 0.445 | 0.393 | 0.349
[2], x1 = 0.7 | 743.2 | 733.2 | 723 | – | – | – | 0.424 | 0.378 | 0.335
[2], x1 = 0.75 | 740.7 | 730.7 | 720.5 | – | – | – | 0.407 | 0.363 | 0.325
[2], x1 = 0.8 | 738.3 | 728.3 | 718 | – | – | – | 0.393 | 0.349 | 0.315
[2], x1 = 0.85 | 735.8 | 725.8 | 715.5 | – | – | – | 0.379 | 0.338 | 0.306
[2], x1 = 0.9 | 733.5 | 723.4 | 713.1 | – | – | – | 0.367 | 0.33 | 0.298
[2], x1 = 0.95 | 731.1 | 720.9 | 710.6 | – | – | – | 0.367 | 0.319 | 0.29
[2], x1 = 1 | 729 | 718.6 | 707.9 | – | – | – | 0.347 | 0.313 | 0.283
